Source: PubChem BioAssay (NCI)
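1) Cells in 96-well plates. 2) Compound, 48 h, 5 concentrations. 3) Linear interpolation between surrounding doses. 4) Unreached endpoint = highest concentration. TGI denotes the concentration required for complete inhibition of growth.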

Legend:
Assay in all cases: inhibition of tumour cell growth, NCI panel, 48 h
RPMI-8226 leukemia = test system: RPMI-8226 leukemia
SF-295 CNS = test system: SF-295 CNS
HOP-92 NSCLC = test system: HOP-92 NSCLC
HS 578T breast = test system: HS 578T breast
HCC-2998 colon = test system: HCC-2998 colon
UACC-62 melanoma = test system: UACC-62 melanoma
M14 melanoma = test system: M14 melanoma
SW-620 colon = test system: SW-620 colon
IGROV1 ovarian = test system: IGROV1 ovarian
UACC-257 melanoma = test system: UACC-257 melanoma
SK-MEL-5 melanoma = test system: SK-MEL-5 melanoma
SN12C renal = test system: SN12C renal
NCI-H226 lung = test system: NCI-H226 lung
MDA-MB-435 = test system: MDA-MB-435
HL-60(TB) leukemia = test system: HL-60(TB) leukemia
CAKI-1 renal = test system: CAKI-1 renal
NCI-H522 lung = test system: NCI-H522 lung
HCT-15 colon = test system: HCT-15 colon
MDA-MB-231 breast = test system: MDA-MB-231 breast
OVCAR-8 ovarian = test system: OVCAR-8 ovarian
MALME-3M melanoma = test system: MALME-3M melanoma
LOX IMVI melanoma = test system: LOX IMVI melanoma
PC-3 prostate = test system: PC-3 prostate
A498 renal = test system: A498 renal
DU-145 prostate = test system: DU-145 prostate
A549 NSCLC = test system: A549 NSCLC
HCT-116 colon = test system: HCT-116 colon
BT-549 breast = test system: BT-549 breast
U251 CNS = test system: U251 CNS
HT29 colon = test system: HT29 colon
SF-539 CNS = test system: SF-539 CNS
NCI/ADR-RES ovarian = test system: NCI/ADR-RES ovarian
OVCAR-3 ovarian = test system: OVCAR-3 ovarian
CCRF-CEM leukemia = test system: CCRF-CEM leukemia
SK-MEL-2 melanoma = test system: SK-MEL-2 melanoma
OVCAR-5 ovarian = test system: OVCAR-5 ovarian
UO-31 renal = test system: UO-31 renal
K-562 leukemia = test system: K-562 leukemia
NCI-H23 lung = test system: NCI-H23 lung
HOP-62 NSCLC = test system: HOP-62 NSCLC
RXF 393 renal = test system: RXF 393 renal
SK-MEL-28 melanoma = test system: SK-MEL-28 melanoma
OVCAR-4 ovarian = test system: OVCAR-4 ovarian
SNB-19 CNS = test system: SNB-19 CNS
T-47D breast = test system: T-47D breast
SK-OV-3 ovarian = test system: SK-OV-3 ovarian
KM12 colon = test system: KM12 colon
COLO 205 colon = test system: COLO 205 colon
SR leukemia = test system: SR leukemia
ACHN renal = test system: ACHN renal
TK-10 renal = test system: TK-10 renal
SF-268 CNS = test system: SF-268 CNS
NCI-H460 lung = test system: NCI-H460 lung
EKVX NSCLC = test system: EKVX NSCLC
MCF7 breast = test system: MCF7 breast
MOLT-4 leukemia = test system: MOLT-4 leukemia
SNB-75 CNS = test system: SNB-75 CNS
786-0 renal = test system: 786-0 renal

Q: Which TGI (RPMI-8226 leukemia) does the source give for `OCc1ccc2c(c1)CC1(C2)Cc2cc3c(cc2C1O)CCC3` (stereo not drawn) here?
A: 15.8 µM

Q: What about the TGI (SF-295 CNS) of the same compound?
A: 12.4 µM

Q: And the TGI (HOP-92 NSCLC)?
A: 34.1 µM

Q: What about the TGI (HS 578T breast) of the same compound?
A: 11.4 µM

Q: What about the TGI (HCC-2998 colon) of the same compound?
A: > 45.3 µM

Q: What about the TGI (UACC-62 melanoma) of the same compound?
A: 16.2 µM

Q: What about the TGI (M14 melanoma) of the same compound?
A: 13 µM

Q: What about the TGI (SW-620 colon) of the same compound?
A: 24 µM

Q: What about the TGI (IGROV1 ovarian) of the same compound?
A: 26.8 µM

Q: What about the TGI (UACC-257 melanoma) of the same compound?
A: 12.6 µM

Q: And the TGI (SK-MEL-5 melanoma)?
A: 12 µM

Q: What about the TGI (SN12C renal) of the same compound?
A: 23.8 µM

Q: And the TGI (NCI-H226 lung)?
A: 28.9 µM

Q: What about the TGI (MDA-MB-435) of the same compound?
A: 2.99 µM

Q: And the TGI (HL-60(TB) leukemia)?
A: > 23.4 µM

Q: And the TGI (CAKI-1 renal)?
A: 27 µM

Q: And the TGI (NCI-H522 lung)?
A: 10 µM

Q: What about the TGI (HCT-15 colon) of the same compound?
A: > 44.2 µM

Q: And the TGI (MDA-MB-231 breast)?
A: 13.3 µM

Q: And the TGI (OVCAR-8 ovarian)?
A: 30.9 µM

Q: And the TGI (MALME-3M melanoma)?
A: 19.2 µM

Q: What about the TGI (LOX IMVI melanoma) of the same compound?
A: 19.4 µM

Q: What about the TGI (PC-3 prostate) of the same compound?
A: 11.7 µM

Q: And the TGI (A498 renal)?
A: 27.7 µM

Q: What about the TGI (DU-145 prostate) of the same compound?
A: 67.1 µM

Q: What about the TGI (A549 NSCLC) of the same compound?
A: > 70.7 µM

Q: What about the TGI (HCT-116 colon) of the same compound?
A: 15.4 µM

Q: And the TGI (BT-549 breast)?
A: 16 µM

Q: And the TGI (U251 CNS)?
A: 20.6 µM

Q: What about the TGI (HT29 colon) of the same compound?
A: 17.5 µM

Q: And the TGI (SF-539 CNS)?
A: 14.9 µM

Q: What about the TGI (NCI/ADR-RES ovarian) of the same compound?
A: 12.3 µM

Q: What about the TGI (OVCAR-3 ovarian) of the same compound?
A: > 50.9 µM

Q: And the TGI (CCRF-CEM leukemia)?
A: > 44.9 µM

Q: And the TGI (SK-MEL-2 melanoma)?
A: 12.7 µM

Q: What about the TGI (OVCAR-5 ovarian) of the same compound?
A: 56.1 µM

Q: And the TGI (UO-31 renal)?
A: 24.1 µM

Q: What about the TGI (K-562 leukemia) of the same compound?
A: > 37.6 µM

Q: And the TGI (NCI-H23 lung)?
A: 25.7 µM

Q: What about the TGI (HOP-62 NSCLC) of the same compound?
A: 17.7 µM

Q: And the TGI (RXF 393 renal)?
A: 18.4 µM

Q: What about the TGI (SK-MEL-28 melanoma) of the same compound?
A: 21.3 µM

Q: And the TGI (OVCAR-4 ovarian)?
A: 36.3 µM

Q: What about the TGI (SNB-19 CNS) of the same compound?
A: > 100 µM

Q: And the TGI (T-47D breast)?
A: 9.44 µM

Q: And the TGI (SK-OV-3 ovarian)?
A: 46.6 µM

Q: What about the TGI (KM12 colon) of the same compound?
A: 16.5 µM

Q: What about the TGI (COLO 205 colon) of the same compound?
A: 10.3 µM

Q: What about the TGI (SR leukemia) of the same compound?
A: > 21.7 µM

Q: And the TGI (ACHN renal)?
A: 41.3 µM

Q: And the TGI (TK-10 renal)?
A: 67.1 µM

Q: What about the TGI (SF-268 CNS) of the same compound?
A: > 72.7 µM

Q: What about the TGI (NCI-H460 lung) of the same compound?
A: 17.1 µM

Q: What about the TGI (EKVX NSCLC) of the same compound?
A: 40.1 µM

Q: And the TGI (MCF7 breast)?
A: 17.6 µM

Q: What about the TGI (MOLT-4 leukemia) of the same compound?
A: 21.1 µM

Q: And the TGI (SNB-75 CNS)?
A: 16.8 µM

Q: And the TGI (786-0 renal)?
A: 45.6 µM
